Molecules are shown by their SMILES.

We go through 28 compounds from patent publication US7419984B2, “Pyrimidines and uses thereof” (Cell Therapeutics, Inc., priority 2002, dated 2008).

In this test the target is T1, human LPAAT-β (Homo sapiens, UniProt O15120).
T1 construct: the full-length human LPAAT-β cDNA was amplified by PCR; poly-histidine tag (N); made in house; host or cells: Sf9 insect cells (baculovirus, pFastBac HTc); the membrane fraction was used as the enzyme
T1 sequence (O15120 24-278): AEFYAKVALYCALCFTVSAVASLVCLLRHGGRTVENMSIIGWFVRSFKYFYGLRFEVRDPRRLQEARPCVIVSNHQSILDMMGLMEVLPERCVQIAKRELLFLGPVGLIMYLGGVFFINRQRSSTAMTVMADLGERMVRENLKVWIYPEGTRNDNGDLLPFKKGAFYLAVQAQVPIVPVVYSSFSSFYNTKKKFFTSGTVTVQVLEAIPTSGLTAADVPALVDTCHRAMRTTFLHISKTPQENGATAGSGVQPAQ
Put plainly: LPAAT-β cell-free assay. It is filed as biochemical. The note with it: Sf9 cell membrane overexpressing recombinant LPAAT-β. The source says:
For the construction of Baculovirus expression vectors, the full-length human LPAAT-β cDNA was amplified by PCR from the DNA template pCE9.LPAAT-β (West et al., DNA Cell Bid. 16.691-701 (1997)) using the primers 5′-[…] […] […] […]-3′ (olpb1F; SEQ ID NO:1) and 5′-[…] […] […]-3′ (olpb1R; SEQ ID NO:2). The ˜870 bp fragment generated was reamplified by PCR using the primers 5′ […] […] […] […] ATC-3′ (olpb2F; SEQ ID NO:3) and 5′-[…] […] […]-3′ (olpb1R; SEQ ID NO:2). The ˜890 bp fragment generated was then cleaved with Sal I and Xba I for insertion into pFastBac™ HTc vector (Life Technologies, Gaithersberg, M.d.) between the Sal I and Xba I sites for the generation of the plasmid pFB.LPAAT-β. This plasmid was then transformed into E. coli DH10Bac™ (Life Technologies, Gaithersberg, M.d.) for the generation of recombinant Bacmid DNA for transfection in HighFive (Invitrogen, San Diego, Calif.) or SF9 insect cells for the production of recombinant Baculovirus stocks using the protocol described in the Bac-to-Bac® Baculovirus Expression System (Life Technologies, Gaithersberg, M.d.), a eukaryotic expression system for generating recombinant baculovirus through site-specific transposition in E. coli. Viral stocks harvested from the transfected cells can then be used to infect fresh insect cells for the subsequence expression of LPAAT-β fusion protein with a poly-histidine tag and a myc-epitope near its N-terminus. The membrane fraction from these Sf9 cells would be the source of LPAAT enzyme.
For the preparation of membranes from Sf9 Cells, all steps are performed on ice or at 4° C. Sf9 cell pellets (˜10^8 cells) were thawed and resuspended in 1-2 ml of buffer A (20 mM Hepes, pH 7.5, 1 mM DTT, 1 mM EDTA, 20% w/v glycerol, 1 mM Benzamidine, 1 μg/ml soybean trypsin inhibitor (SBTI), 1 μug/ml pepstatin A) w/o DTT but with 1 mM Pefabloc. The cells were lysed by sonication using a Branson Sonifier at output=2, duty cycle=2, 10 pulses each at 10 s. with the tip of small sonicator probe submerged but not touching the walls. DTT was then added to 1 mM from a 1 M stock. The samples were centrifuged at 1500 rpm for 5 min. The low speed supernatant was saved and centrifuged (TLA 100.3 rotor, polycarbonate tubes, 2 ml/tube or 1.5 ml/tube minimum) at 100000×g for 1 hr. The high speed pellet was resuspend in Buffer A with a probe sonicator (10 pulses @ output #2 and duty cycle 20%) as a source of LPAAT enzyme.
LPAAT-β catalyzes the transfer of an acyl group from a donor such as acyl-CoA to LPA. The transfer of the acyl group from acyl-CoA to LPA leads to the release of free CoA, which can be reacted with the thiol reagent, 5,5′-dithiobis(2-nitrobenzoic acid) (DTNB). The reaction between DTNB and the free sulfhydryl group from CoA generates a yellow-colored product, 3-carboxylato-4-nitrothiophenolate (CNP), that absorbs at 413 nm. LPAAT-β derived from Sf9 cell membrane overexpressing LPAAT-β were resuspended in HEPES saline buffer (20 mM HEPES pH 7.5, 150 mM NaCl), 1 mg/ml BSA and 72 μl aliquots were distributed into 96-well microtiter plates. 8 μl of compound of interest at 200 μM dissolved in 100% DMSO was added into each well. […] of 1 mM 18:1-CoA and 1 mM sn-1-18:1 lysoPA was then added to each well to initiate the reaction and allowed to run at room temperature for 25 min. 100 μl of 1 mM DTNB in 100% ethanol was then added to each well to quench the reaction and for color development. The absorbance at 405 nm, measured using a spectrophotometer plate reader, is proportional to the activity of LPAAT-2 in the sample. This colorimetric assay was used for the high throughput screening of LPAAT inhibitors.
The radiometric assay was carried out in Sf9 cell membrane overexpressing LPAAT-β resuspended in HEPES-saline buffer, pH 7.5, 1 mg/ml BSA, 1 mM EDTA and 200 μM [^14C]18:1-CoA and 200 μM sn-1-18:1 lysoPA.
As to `Cc1ccc(Cl)cc1-c1cc(Nc2ccc(Br)cc2)nc(N)n1` [Example 30, N*4*-(4-Bromo-phenyl)-6-(5-chloro-2-methyl-phenyl)-pyrimidine-2,4-diamine], the IC50 is 34 nM.
For the compound `Cc1ccc(Cl)cc1-c1cc(Nc2ccc3cn[nH]c3c2)nc(N)n1` [Example 31, 6-(5-Chloro-2-methyl-phenyl)-N*4*-(1H-indazol-6-yl)-pyrimidine-2,4-diamine], the IC50 was found to be 32 nM.
For `Cc1ccc(Cl)cc1-c1cc(Nc2ccc(C#N)cc2)nc(N)n1` [Example 32, 4-[2-Amino-6-(5-chloro-2-methyl-phenyl)-pyrimidin4-ylamino]-benzonitrile], the IC50 is 38 nM.
On the same count and under the same terms, the result for `Cc1ccc(Cl)cc1-c1cc(Nc2ccc(CO)cc2)nc(N)n1` [Example 33, {4-[2-Amino-6-(5-chloro-2-methyl-phenyl)-pyrimidin4-ylamino]-phenyl}-methanol] reads 95 nM; that for `COc1ccc(Cl)cc1-c1cc(N)nc(Nc2ccc(Cl)cc2)n1` [Example 34, 6-(5-Chloro-2-methoxy-phenyl)-N*2*-(4-chloro-phenyl)-pyrimidine-2,4-diamine], 2000 nM; that for `COc1ccc(Cl)cc1-c1cc(N)nc(Nc2ccc3cn[nH]c3c2)n1` [Example 35, 6-(5-Chloro-2-methoxyphenyl)-N*2*-(1H-indazol-6yl)-pyrimidine-2,4-diamine], 800 nM.
`COc1ccc(Cl)cc1-c1nc(N)cc(Nc2ccc(Br)cc2)n1` [Example 36, N-(4-Bromo-phenyl)-2-(5-chloro-2-methoxy-phenyl)-pyrimidine4,6-diamine]: the IC50 came to 8000 nM.
On the same count and under the same terms, under `COc1ccc(Cl)cc1-c1nc(N)cc(Nc2ccc3cn[nH]c3c2)n1` [Example 37, 2-(5-Chloro-2-methoxy-phenyl)-N-(1H-indazol-6-yl)-pyrimidine4,6-diamine] stands 2100 nM; under `COc1ccc(Cl)cc1-c1cc(Nc2ccc(Cl)cc2)nc(C)n1` [Example 38, [6-(5-Chloro-2-methoxy-phenyl)-2-methyl-pyrimidin-4-yl]-(4-chloro-phenyl)-amine], 50 nM; under `COc1ccc(Cl)cc1-c1cc(Nc2ccc(Br)cc2)nc(C)n1` [Example 39, [6-(5-Chloro-2-methoxy-phenyl)-2-methyl-pyrimidin-4-yl]-(4-bromo-phenyl)-amine], 180 nM.
For the compound `COc1ccc(Cl)cc1-c1cc(Nc2ccc3cn[nH]c3c2)nc(C)n1` [Example 40, [6-(5-Chloro-2-methoxy-phenyl)-2-methyl-pyrimidin4-yl]-(1H-indazol-6-yl)-amine], the IC50 was determined as 14 nM.
`Cc1nc(Nc2ccc(Br)cc2)cc(-c2cc(Cl)ccc2C)n1` [Example 41, [6-(5-Chloro-2-methyl-phenyl)-2-methyl-pyrimidin-4-yl]-(4-bromo-phenyl)-amine]: the IC50 is 21 nM.
Regarding `Cc1nc(Nc2ccc(Cl)cc2)cc(-c2cc(Cl)ccc2C)n1` [Example 42, [6-(5-Chloro-2-methyl-phenyl)-2-methyl-pyrimidin-4-yl]-(4-chloro-phenyl)-amine], the half-inhibitory concentration (IC50) stood at 10 nM.
With `Cc1nc(Nc2ccc3cn[nH]c3c2)cc(-c2cc(Cl)ccc2C)n1` [Example 43, [6-(5-Chloro-2-methyl-phenyl)-2-methyl-pyrimidin-4-yl]-(1H-indazol-6-yl)-amine], the IC50 stood at 17 nM.
Turning to `CCOc1ccc(Cl)cc1-c1cc(Nc2ccc(CO)cc2)nc(N)n1` [Example 44, {4-[2-Amino-6-(5-chloro-2-ethoxy-phenyl)-pyrimidin-4-ylamino]-phenyl}-methanol], the concentration for half-maximal inhibition (IC50) amounted to 75 nM.
Turning to `COc1ccc(Cl)cc1-c1cc(Nc2ccc(C#N)cc2)nc(N)n1` [Example 45, 4-[2-Amino-6-(5-chloro-2-methoxy-phenyl)-pyrimidin-4-ylamino]-benzonitrile], the IC50 was 33 nM.
Still for that read-out and setting: the result for `CCOc1ccc(Cl)cc1-c1cc(Nc2ccc([N+](=O)[O-])cc2)nc(N)n1` [Example 46, 6-(5-Chloro-2-ethoxy-phenyl)-N*4*-(4-nitro-phenyl)-pyrimidine-2,4-diamine] reads 10 nM; that for `CCOc1ccc(Cl)cc1-c1cc(Nc2ccc(CCO)cc2)nc(N)n1` [Example 47, 2-{4-[2-Amino-6-(5-chloro-2-ethoxy-phenyl)-pyrimidin4-ylamino]-phenyl}-ethanol], 28 nM; that for `Nc1nc(Nc2ccc(CCO)cc2)cc(-c2cc(Cl)ccc2Cl)n1` [Example 48, 2-{4-[2-Amino-6-(2,5-dichloro-phenyl)-pyrimidin4-ylamino]-phenyl}-ethanol], 28 nM.
Regarding `Cc1ccc(Cl)cc1-c1cc(Nc2ccc(CCO)cc2)nc(N)n1` [Example 49, 2-{4-[2-Amino-6-(5-chloro-2-methyl-phenyl)-pyrimidin4-ylamino]-phenyl}-ethanol], the concentration for half-maximal inhibition (IC50) stood at 49 nM.
The same measure, in the same setting: under `COc1ccc(Cl)cc1-c1cc(Nc2ccc(CCO)cc2)nc(N)n1` [Example 50, 2-{4-[2-Amino-6-(5-chloro-2-methoxy-phenyl)-pyrimidin-4-ylamino]-phenyl}-ethanol] stands 46 nM.
Consider `COc1ccc(Cl)cc1-c1nc(N)nc(Nc2ccc3cn[nH]c3c2)c1C` [Example 51, 6-(5-Chloro-2-methoxy-phenyl)-5-methyl-N*4*-(1H-indazol-6-yl)-pyrimidine-2,4-diamine], for which the “LPAAT-β cell-free assay (IC50, μM)” value was “Lessactive”.
Consider `COc1ccc(Cl)cc1-c1nc(N)nc(Nc2ccc3cn[nH]c3c2)c1Br` [Example 52, 5-Bromo-6-(5-chloro-2-methoxy-phenyl)-N*4*-(1H-indazol-6-yl)-pyrimidine-2,4-diamine], for which the half-maximal inhibitory concentration (IC50) was 500 nM.
For `CCOc1ccc(Cl)cc1-c1cc(Nc2ccc(C)cc2)nc(N)n1` [Example 53, 6-(5-Chloro-2-ethoxy-phenyl)-N*4*-p-tolyl-pyrimidine-2,4-diamine], the 50% inhibitory concentration (IC50) stood at 95 nM.
Turning to `CCOc1ccc(Cl)cc1-c1cc(Nc2ccc3cn[nH]c3c2)nc(N)n1` [Example 54, 6-(5-Chloro-2-ethoxy-phenyl)-N*4*-(1H-indazol-6-yl)-pyrimdine-2,4-diamine], the IC50 was determined as 24 nM.
As for `CCOc1ccc(Cl)cc1-c1cc(Nc2ccc(Cl)cc2)nc(N)n1` [Example 55, 6-(5-Chloro-2-ethoxy-phenyl)-N*4*-(4-chloro-phenyl)-pyrimidine-2,4-diamine], the IC50 was determined as 17 nM.
On the same count and under the same terms, under `CCOc1ccc(Cl)cc1-c1cc(Nc2ccc(C(F)(F)F)cc2)nc(N)n1` [Example 56, 6-(5-Chloro-2-ethoxy-phenyl)-N*4*-(4-trifluoromethyl-phenyl)-pyrimidine-2,4-diamine] stands 70 nM.
Same read-out and setting: under `CCOc1ccc(Cl)cc1-c1cc(Nc2ccc(C#N)cc2)nc(N)n1` [Example 57, 4-[2-Amino-6-(5-chloro-2-ethoxy-phenyl)-pyrimidin4-ylamino]-benzonitrile] stands 22 nM.
